Results on nine compounds are retold here after article PMC7002685, “Inhibition of vascular calcification by inositol phosphates derivatized with ethylene glycol oligomers” (Nature Communications, 2020).

Values joined by “and” are separate entries in the source; they are usually repeats but may differ in a detail not shown here. Identical values can stand only once.

In the test the test system is transformation of CPP1 to CPP2 in pooled human serum. Nature of the test: In vitro serum calcification propensity (T50) screening assay. In kind it is biochemical. Further details: key to T50: T50 in minutes (time to 50% CPP phase transition). Particulars: for T50: one value per experiment; for activity/unit mass: mean c350 x mw (Na salt); for concentration upon which a T50 of 350 min is reached (c350), mean: mean of n experiments; for Concentration at T50 = 350 min mean ± s.d. (n) (c350): pooled human serum, 10 mM calcium, 6 mM phosphate, 37 °C; for concentration upon which a T50 of 350 min is reached (c350), single experiment: one value per experiment (lab journal reference E05-E40); for c350: unit not printed in the sentence (equals mg/L column of rebuttal Table 1). Here is the method:
The compounds were ranked for calcification inhibition activity using a nanoparticle-based test, developed for risk stratification, which measures the propensity for calcification in patient serum. […] The time, after which 50% of CPP phase transition occurred (T50), was assessed by time-resolved spectrophotometry at 550 nm (Supplementary Fig. 1a).
The screening assay was performed as described previously. In brief, pooled human serum (H4522, Sigma-Aldrich) stored at −20 °C was thawed at 37 °C, centrifuged (10,000 × g, and 4 °C, 30 min) (5427R, Eppendorf, Switzerland), and sterile filtered (0.22 μm filter, Millipore, Merck KGaA) to remove potential cryoprecipitates (cleared human serum). The calcium solution was 40 mM CaCl2 (102382, Merck KGaA) in HBS, pH 7.4 (RT) (100 mM HEPES (H3375, Sigma-Aldrich) and 140 mM NaCl (1734712, Fisher Scientific, Hampton, NH, USA)). […] All salt solutions and buffers were double sterile filtered (0.22 µm) and pre-warmed to 37 °C prior to use. […] The plate was sealed with an adhesive film and the absorption at 550 nm was measured every 3 min with 1 min in-between shaking for a total of 300 cycles at 37 °C using the infinite M200 microplate reader (Tecan, Männedorf, Switzerland). An A550 vs. time graph was generated and T50 (min) (time at half-maximum transition from CPP1 to CPP2) values were derived by sigmoidal curve fit using Prism 8 (nonlinear regression in the log(agonist) vs. response–variable slope (four parameter mode) using the robust fit fitting method, GraphPad Software, San Diego, CA, USA). Activities between compounds were compared by generating a T50 (min) vs. concentration (µM) graph, calculating nonlinear regression and deriving the concentration required to delay T50 to 350 min (c350) using a standard equation for the dose–response curve, Eq. (1), whereby x = [compound], y = time (min), bottom = baseline response, top = maximum response, T50 = [drug] that leads to half-maximum response, and the hill slope is a factor that describes the steepness of the curve.1 y= bottom+top - bottom/1+T50/x^hillslope.

With `O=P1(O)OP(=O)(O)O[C@H]2[C@@H](O1)[C@@H]1OP(=O)(O)OP(=O)(O)O[C@H]1[C@@H]1OP(=O)(O)OP(=O)(O)O[C@@H]21` (racemic) [ITPP, myo-inositol trispyrophosphate], the activity/unit mass came out at 60.60 mg/L; the “concentration upon which a T50 of 350 min is reached (c350), mean” value (“concentration upon which a T50 … mean” for short) was greater than 100 µM; the “Concentration at T50 = 350 min mean ± s.d. (n) (c350)” value (“Concentration … (n) (c350)” for short) was >100 (4) µM and >60.6 (4) mg/L. Also, the T50 (concentration 1 μM) is 193.4 and 250.1 and 242.3 and 298. The T50 (concentration 3 μM) was 191.467 and 273.733 and 236.7 and 299.7. In addition, the T50 (concentration 10 μM) is 194.6 and 250.333 and 260.467 and 308.2. Moreover, where the note is “concentration 30 μM”, the T50 is 200.233 and 253.8 and 260.967. Moreover, where the note is “concentration 50 μM”, the T50 is 203.167. Besides, under “concentration 100 μM”, the T50 was 274.033 and 292.433.

As to `COCCOCCO[C@@H]1[C@@H](OP(=O)(O)O)[C@H](OP(=O)(O)O)[C@@H](OP(=O)(O)O)[C@@H](OP(=O)(O)O)[C@H]1OP(=O)(O)O` (racemic) [OEG2-IP5, (±)-6-O-(methoxy-diethyleneglycol)-myo-inositol-1,2,3,4,5-pentakis(phosphate)], the activity/unit mass turned out to be 7.10 mg/L; the “concentration upon which a T50 … mean” value worked out at 7.9 µM; the “concentration upon which a T50 of 350 min is reached (c350), single experiment” value is 5.5 µM and 7.4 µM and 10.7 µM; the “Concentration … (n) (c350)” value was 7.9 ± 2.7 (3) µM and 7.1 ± 2.4 (3) mg/L. In addition, the c350 came to 7.1 ± 2.4. Further, for the setting “concentration 0.3 μM”, the T50 is 233.1 and 222.8 and 210.3. Moreover, the T50 (concentration 1 μM) is 261.7 and 258.567 and 225.033. Besides, under “concentration 3 μM”, the T50 was 295.2 and 270.867 and 244.067. Also, the T50 (concentration 10 μM) is 440.033 and 391.7 and 340.167. The “Concentration … (n) (c350)” value (listed as (±)-4-O-(methoxy-diethyleneglycol)-myo-inositol-1,2,3,5,6-pentakis(phosphate)) is 7.9 ± 2.7 µM and 7.1 ± 2.4 mg/L.

`COCCOCCOCCOCCOCCOCCOCCO[C@@H]1[C@@H](OP(=O)(O)O)[C@H](OP(=O)(O)O)[C@@H](OP(=O)(O)O)[C@@H](OP(=O)(O)O)[C@H]1OP(=O)(O)O` (racemic) [OEG7-IP5, (±)-6-O-(methoxy-heptaethyleneglycol)-myo-inositol-1,2,3,4,5-pentakis(phosphate)]: the activity/unit mass was 7.56 mg/L; the “concentration upon which a T50 … mean” value was 6.7 µM; the “concentration upon which a T50 of 350 min is reached (c350), single experiment” value was 5.8 µM and 6.8 µM and 7.6 µM; the “Concentration … (n) (c350)” value was 6.7 ± 0.9 (3) µM and 7.6 ± 1.0 (3) mg/L. In addition, for the setting “concentration 0.3 μM”, the T50 is 220.667 and 225.7 and 210.2. In addition, the T50 (concentration 1 μM) was 229.7 and 230.533 and 222.7. The T50 (concentration 3 μM) is 271.4 and 260.7 and 241.467. Also, the T50 (concentration 10 μM) is 480.067 and 432.633 and 427.367.

With `COCCOCCOCCOCCOCCOCCOCCOCCOCCOCCOCCO[C@@H]1[C@@H](OS(=O)(=O)O)[C@H](OP(=O)(O)O)[C@@H](OS(=O)(=O)O)[C@@H](OP(=O)(O)O)[C@H]1OS(=O)(=O)O` (racemic) [OEG11-IP2S3, (±)-4-O-(methoxy-undecaethyleneglycol)-1,3,5-O-tris(sulfato)-myo-inositol-2,6-O-bis(phosphate)], the activity/unit mass was 22.87 mg/L; the “concentration upon which a T50 … mean” value came out at 18.6 µM; the “concentration upon which a T50 of 350 min is reached (c350), single experiment” value was 16.2 µM and 19.4 µM and 17.1 µM and 19.2 µM and 20.9 µM; the “Concentration … (n) (c350)” value was 18.6 ± 1.9 (5) µM and 22.9 ± 2.3 (5) mg/L. In addition, the T50 (concentration 0.3 μM) worked out at 256.3. Besides, for the setting “concentration 1 μM”, the T50 is 217.567 and 236.467 and 212.467. The T50 (concentration 3 μM) is 261.167 and 253.1 and 226.6. The T50 (concentration 10 μM) is 303.9 and 300.967 and 303.767 and 294.6. Besides, the T50 (concentration 30 μM) is 430.533 and 413.2 and 437.833 and 410.233. Also, the T50 (concentration 50 μM) was 586.8 and 587.733 and 528.367.

`COCCOCCOCCOCCOCCOCCOCCOCCOCCOCCOCCO[C@@H]1[C@@H](OP(=O)(O)O)[C@H](OP(=O)(O)O)[C@@H](OP(=O)(O)O)[C@@H](OP(=O)(O)O)[C@H]1OP(=O)(O)O` (racemic) [OEG11-IP5, (±)-6-O-(methoxy-undecaethyleneglycol)-myo-inositol-1,2,3,4,5-pentakis(phosphate)]: the activity/unit mass amounted to 6.84 mg/L; the “concentration upon which a T50 … mean” value was found to be 5.3 µM; the “concentration upon which a T50 of 350 min is reached (c350), single experiment” value is 4.6 µM and 5.2 µM and 6.0 µM; the “Concentration … (n) (c350)” value is 5.3 ± 0.7 (3) µM and 6.8 ± 0.9 (3) mg/L. The T50 (concentration 0.3 μM) is 222.7 and 220.167 and 220.4. Also, the T50 (concentration 1 μM) was 258.35 and 236.633 and 236.5. Also, the T50 (concentration 3 μM) is 294.167 and 279.867 and 265.867. The T50 (concentration 10 μM) was 559.8 and 530.3 and 501.9.

In the case of `COCCOCCOCCOCCOCCOCCOCCOCCOCCOCCOCCOCCO[C@@H]1[C@@H](OP(=O)(O)O)[C@H](OP(=O)(O)O)[C@@H](OP(=O)(O)O)[C@@H](OP(=O)(O)O)[C@H]1OP(=O)(O)O` (racemic) [OEG12-IP5, (±)-6-O-(methoxy-dodecaethyleneglycol)-myo-inositol-1,2,3,4,5-pentakis(phosphate)], the activity/unit mass was 6.58 mg/L; the “concentration upon which a T50 … mean” value came out at 4.9 µM; the “concentration upon which a T50 of 350 min is reached (c350), single experiment” value was 6.0 µM and 4.6 µM and 4.9 µM and 4.4 µM; the “Concentration … (n) (c350)” value is 4.9 ± 0.6 (5) µM and 6.6 ± 0.9 (5) mg/L. Also, the T50 (concentration 0.246 μM) was 217.233 and 225.267. In addition, for the setting “concentration 0.82 μM”, the T50 is 258.4 and 206.7 and 222.1 and 217.5 and 256.667. Also, the T50 (concentration 1.6 μM) is 275.15 and 220.7. Further, the T50 (concentration 2.46 μM) was 260.5 and 282.167. In addition, for the setting “concentration 4.1 μM”, the T50 is 332.45 and 282.35 and 325.75 and 315.4 and 340. Besides, the T50 (concentration 8.2 μM) was 493.7 and 442.3 and 481.45 and 498.1 and 499.967.

In the case of `COCCOCCO[C@H]1[C@@H](OP(=O)(O)O)[C@H](OP(=O)(O)O)[C@@H](OP(=O)(O)O)[C@H](OP(=O)(O)O)[C@H]1OP(=O)(O)O` [2-mono-OEG2-IP5, (±)-2-O-(methoxy-diethyleneglycol)-myo-inositol-1,2,3,5,6-pentakis(phosphate)], the “Concentration … (n) (c350)” value is 8.8 ± 0.1 µM and the c350 turned out to be 7.9 ± 0.1. In addition, the “Concentration … (n) (c350)” value (listed as (±)-2-O-(methoxy-diethyleneglycol)-myo-inositol-1,2,3,5,6-pentakis(phosphate)) is reported as 7.9 ± 0.1 mg/L.

As for `COCCOCCO[C@H]1[C@H](OP(=O)(O)O)[C@H](OCCOCCOC)[C@H](OP(=O)(O)O)[C@@H](OCCOCCOC)[C@@H]1OP(=O)(O)O` [(OEG2)3-IP3, 2,4,6-Tri-O-(methoxy-diethyleneglycol)-myo-inositol-1,3,5-tris(phosphate)], the activity/unit mass was determined as 5.43 mg/L; the “concentration upon which a T50 … mean” value amounted to 7.1 µM; the “concentration upon which a T50 of 350 min is reached (c350), single experiment” value is 6.1 µM and 7.7 µM and 7.4 µM; the “Concentration … (n) (c350)” value was 7.1 ± 0.9 (3) µM and 5.4 ± 0.7 (3) mg/L. The T50 (concentration 1 μM) was 250.8 and 223.6 and 227.933. In addition, the T50 (concentration 3 μM) is 288.867 and 266.233 and 265.7. The T50 (concentration 5 μM) is 325.1 and 295.733 and 294.5. Further, the T50 (concentration 10 μM) was 440.6 and 395.433 and 411.533.

With `COCCOCCOCCOCCOCCOCCOCCO[C@@H]1[C@@H](OP(=O)(O)O)[C@H](OCCOCCOCCOCCOCCOCCOCCOC)[C@@H](OP(=O)(O)O)[C@@H](OP(=O)(O)O)[C@H]1OP(=O)(O)O` [(OEG7)2-IP4, 4,6-Di-O-(methoxy-heptaethyleneglycol)-myo-inositol-1,2,3,5-tetrakis(phosphate)], the activity/unit mass came out at 5.96 mg/L; the “concentration upon which a T50 … mean” value is 4.5 µM; the “concentration upon which a T50 of 350 min is reached (c350), single experiment” value was 4.1 µM and 4.9 µM and 4.5 µM; the “Concentration … (n) (c350)” value is 4.5 ± 0.4 (3) µM and 6.0 ± 0.6 (3) mg/L. In addition, the T50 (concentration 0.3 μM) was 217.433 and 203.2 and 207.5. The T50 (concentration 1 μM) is 243.55 and 226.667 and 233.367. Also, under “concentration 3 μM”, the T50 is 297.4 and 271.533 and 282.8. For the same compound, the T50 (concentration 10 μM) is 754.35 and 624.433 and 692.333.
